This assay addresses TNFα trimer (Homo sapiens, UniProt P01375). Kind of assay: TNFα FP Competitive Binding Assay. Put shortly:
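Compounds, 12-point 1:3 dilutions topping at 100 μM (2.0% DMSO) or 338 μM (3.4% DMSO) final, compete with 1 nM fluorescent probe for 20 nM TNFα trimer in HEPES/NaCl/EDTA/Triton buffer. After 18-24 h incubation at 37 °C plus 1 h rt equilibration, background-subtracted polarization is read and fitted with variable slope.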

[1] abbreviates: fluorescence polarization competition, 20 nM TNFα trimer, 1 nM OregonGreen488 probe, read-out: TNF IC50 (TNFα FP binding assay IC50).
[2] abbreviates: TNFα FP competitive binding assay, class symbols A/B/C, read-out: TNF IC50.

Counter-ions that a name gives are not always drawn. Like-named read-outs stand apart in the source and are kept apart here.

As usually defined, the IC50 is the concentration at which inhibition is half-maximal.

TNFα trimer, sequence (P01375 77-233 limits assumed): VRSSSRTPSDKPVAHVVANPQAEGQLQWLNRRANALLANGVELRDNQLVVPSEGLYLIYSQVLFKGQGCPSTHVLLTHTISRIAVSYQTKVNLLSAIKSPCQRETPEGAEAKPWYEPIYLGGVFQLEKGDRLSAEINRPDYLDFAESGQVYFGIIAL

As for `O=C1OCC2CN(c3ncc(-c4ccc5nc6n(c5c4)[C@@H](c4ccccc4)COC6)cn3)CCN12` (stereo partly shown) [G.27], the IC50 under setting [1] was in the range of 1000 to 10000 nM.
As to `c1ccc([C@H]2COCc3nc4ccc(-c5cnc(N6CCn7cnnc7C6)nc5)cc4n32)cc1` [G.28], the IC50 under setting [1] is less than 1000 nM.
`Cc1ccc(C)c(C2CCc3nc4ccc(-c5cnc(N6CCC(O)CC6)nc5)nc4n32)c1` (stereo not shown) [N.3]: the IC50 under setting [1] was less than 1000 nM.
Consider `c1ccc(C2CCc3nc4ccc(N5CCN(c6ncccn6)CC5)nc4n32)cc1` (stereo not shown) [Example 18, 8-Phenyl-2-(4-(pyrimidin-2-yl)piperazin-1-yl)-7,8-dihydro-6H-pyrrolo[2′,1′:2,3]imidazo[4,5-b]pyridine], for which the IC50 under setting [1] lay within 1000 to 10000 nM.
For `c1ccc(C2COCc3nc4ccc(-c5cnc(-n6ccnc6)cn5)cc4n32)cc1` (stereo not shown) [T.9], the IC50 under setting [2] was in the range of 1000 to 10000 nM.
Consider `c1ccc(C2CCc3nc4cnc(-c5cnc(N6CCOCC6)nc5)cc4n32)cc1` (stereo not shown) [P.1], for which the IC50 under setting [1] was in the range of 1000 to 10000 nM.
Take `O=C1NCC2CN(c3ncc(-c4ccc5nc6n(c5n4)C(c4cccc(F)c4)COC6)cn3)CCN12` (stereo not shown) [AH.8]: under setting [2], the IC50 is less than 1000 nM.
Consider `CS(=O)(=O)c1ccc(-c2ccc3nc4n(c3c2)C(c2ccccc2)CC4)cc1` (stereo not shown) [A.5], for which the IC50 under setting [1] was less than 1000 nM.
On to `O=P(O)(O)OC1CCN(c2ncc(-c3ccc4nc5n(c4n3)[C@@H](c3ccccc3)CC5)cn2)CC1` [Example 46.1, (R)-1-(5-(8-Phenyl-7,8-dihydro-6H-pyrrolo[2′,1′:2,3]imidazo[4,5-b]pyridin-2-yl)pyrimidin-2-yl)piperidin-4-yl dihydrogen phosphate hydrochloride], for which the IC50 under setting [1] lay within 1000 to 10000 nM.
Consider `CC(C)(O)c1ncc(-c2ccc3nc4n(c3n2)C2(COC4)CC(=O)c3ccccc32)cn1` (stereo not shown) [Example 69, 2′-(2-(2-Hydroxypropan-2-yl)pyrimidin-5-yl)-6′,8′-dihydrospiro[indene-1,9′-pyrido[3′,2′:4,5]imidazo[2,1-c][1,4]oxazin]-3(2H)-one], for which the IC50 under setting [1] was 1000 to 10000 nM.
Regarding `OC1CCCN(c2ncc(-c3ccc4nc5n(c4n3)C3(CCc4ccccc43)COC5)cn2)CC1` (stereo not shown) [AV.9], under setting [2], the IC50 is less than 1000 nM.
For the compound `CCS(=O)(=O)c1ccc(-c2ccc3nc4n(c3c2)C(c2ccccc2)CC4)cn1` (stereo not shown) [A.9], the IC50 under setting [1] is less than 1000 nM.
Same read-out and setting: for `OC1CCN(c2ncc(-c3ccc4nc5n(c4n3)C(c3ccccc3)C3CC5C3)cn2)CC1` (stereo not shown) [Example 64, 1-(5-(9-Phenyl-6,7,8,9-tetrahydro-6,8-methanoimidazo[1,2-a:5,4-b′]dipyridin-2-yl)pyrimidin-2-yl)piperidin-4-ol] the value was 1000 to 10000 nM.
Regarding `O=C(CO)N1CCN(c2ncc(-c3ccc4nc5n(c4n3)C(c3ccccc3)COC5)cn2)CC1` (stereo not shown) [AZ.7], the IC50 under setting [2] was less than 1000 nM.
With `C[C@H]1CN(C(=O)COC(C)(C)C)CCN1c1ncc(-c2ccc3nc4n(c3n2)C2(COC4)COc3ccccc32)cn1` (stereo partly drawn) [BG.4, 1-((3S)-4-(5-(2H,6′H,8′H-Spiro[benzofuran-3,9′-pyrido[3′,2′:4,5]imidazo[2,1-c][1,4]oxazin]-2′-yl)pyrimidin-2-yl)-3-methylpiperazin-1-yl)-2-(tert-butoxy)ethan-1-one], the IC50 under setting [2] fell in the range of 1000 to 10000 nM.
With `CN1CCN(c2ccc(-c3ccc4nc5n(c4c3)C(c3ccccc3)COC5)cn2)CC1` (stereo not shown) [T.20], the IC50 under setting [2] lay within 1000 to 10000 nM.
On to `O=C1CN(c2ncc(-c3cc4c(cn3)nc3n4C(c4ccccc4)CC3)cn2)CCN1` (stereo not shown) [P.3], for which, under setting [1], the IC50 is 10000 to 100000 nM.
The same measure, in the same setting: for `c1ccc([C@H]2CCc3nc4ccc(-c5ccnc(OC6CCCOC6)c5)nc4n32)cc1` (stereo partly drawn) [Example 48, (8R)-8-Phenyl-2-(2-((tetrahydro-2H-pyran-3-yl)oxy)pyridin-4-yl)-7,8-dihydro-6H-pyrrolo[2′,1′:2,3]imidazo[4,5-b]pyridine] the value was 1000 to 10000 nM.
Take `c1ccc([C@H]2COCc3nc4ccc(-c5cnc(N6CCC7(CC6)COC7)nc5)cc4n32)cc1` [G.8]: the IC50 under setting [1] is less than 1000 nM.
`COc1ccccc1C1CCCc2nc3ccc(-c4cnc(N5CCC(C)(O)CC5)nc4)cn3c21` (stereo not shown) [AJ.5]: the IC50 under setting [2] was less than 1000 nM.
The same measure, in the same setting: next, `OC1CC(Nc2ncc(-c3ccc4nc5n(c4n3)C3(CCOc4ccccc43)COC5)cn2)C1` (stereo not shown) [BB.6]: 1000 to 10000 nM; `COc1ccccc1C1CCCc2nc3ccc(-c4cnc(N5CCC6(CC5)CC(O)C6)nc4)cn3c21` (stereo not shown) [AJ.8]: less than 1000 nM.
Take `O=C1NC[C@@H]2CN(c3ncc(-c4ccc5nc6n(c5n4)C4(COC6)COc5ccccc54)cn3)CCN12` (stereo partly shown) [AU.1]: under setting [2], the half-maximal inhibitory concentration (IC50) was less than 1000 nM.
`Cc1ccc(C2(O)CCCCc3nc4ccc(-c5cnc(N6CCOCC6)nc5)cn4c32)cc1` (stereo not shown) [J.7]: under setting [1], the IC50 fell in the range of 1000 to 10000 nM.
Consider `FC(F)(F)COc1ccc(-c2ccc3nc4n(c3c2)C(c2ccccc2)COC4)cn1` (stereo not shown) [T.4], for which the IC50 under setting [2] was in the range of 1000 to 10000 nM.
For `CC(C)(O)c1ncc(-c2ccc3nc4n(c3n2)C2(CCc3ccccc32)COC4O)cn1` (stereo not shown) [Example 72, 2′-(2-(2-Hydroxypropan-2-yl)pyrimidin-5-yl)-2,3-dihydro-6′H,8′H-spiro[indene-1,9′-pyrido[3′,2′:4,5]imidazo[2,1-c][1,4]oxazin]-6′-ol], under setting [1], the concentration for half-maximal inhibition (IC50) lay within 1000 to 10000 nM.
As for `CC(C)(O)c1ncc(-c2ccc3nc4n(c3c2)[C@H](c2ccccc2)CC4)cn1` [Y.4], under setting [2], the IC50 lay within 10000 to 100000 nM.
For the compound `CCOC(=O)CNc1ncc(-c2ccc3nc4c(n3c2)C(c2ccccc2OC)CCC4)cn1` (stereo not shown) [Example 7, Ethyl 2-[[5-[9-(2-methoxyphenyl)-6,7,8,9-tetrahydropyrido[1,2-a]benzimidazol-2-yl]pyrimidin-2-yl]amino]acetate], under setting [1], the IC50 was less than 1000 nM.
On the same count and under the same terms, for `Cc1ncccc1-c1ccc2nc3n(c2c1)C(c1ccccc1)CC3` (stereo not shown) [A.32] the value was 10000 to 100000 nM.
As for `NC1CC2(CCN(c3ncc(-c4ccc5nc6n(c5c4)[C@@H](c4ccccc4)COC6)cn3)CC2)C1` [Example 36, (S)-7-(5-(4-Phenyl-3,4-dihydro-1H-benzo[4,5]imidazo[2,1-c][1,4]oxazin-7-yl)pyrimidin-2-yl)-7-azaspiro[3.5]nonan-2-amine], the IC50 under setting [1] is less than 1000 nM.
For `OCC1(F)CCN(c2ncc(-c3ccc4nc5n(c4n3)C3(CCc4ccccc43)COC5)cn2)CC1` (stereo not shown) [AV.7], under setting [2], the IC50 is less than 1000 nM.
Consider `COc1cncc(-c2ccc3nc4n(c3c2)C(c2ccccc2)CC4)c1` (stereo not shown) [A.38], for which the IC50 under setting [1] was in the range of 1000 to 10000 nM.
Still for that read-out and setting: next, `FC1(F)CCN(c2ncc(-c3ccc4nc5n(c4n3)C(c3ccccc3)COC5)cn2)CC1` (stereo not shown) [Example 82]: less than 1000 nM; `OCC1(F)CCN(c2ncc(-c3ccc4nc5n(c4c3)[C@@H](c3ccccc3)COC5)cn2)CC1` [G.14]: less than 1000 nM.
Take `NC(=O)c1ccc(-c2ccc3nc4n(c3c2)C(c2ccccc2)CC4)cc1` (stereo not shown) [A.36]: the IC50 under setting [1] was 1000 to 10000 nM.
Regarding `OCC1CCCN(c2ncc(-c3ccc4nc5n(c4n3)C3(CCc4ccccc43)COC5)cn2)C1` (stereo not shown) [AV.1], under setting [2], the IC50 is less than 1000 nM.
As for `CC(C)(O)c1ncc(-c2ccc3nc4n(c3n2)C2(CCOc3ccccc32)COC4)cn1` (stereo not shown) [E.5, 2-(5-(6′,8′-Dihydrospiro[chroman-4,9′-pyrido[3′,2′:4,5]imidazo[2,1-c][1,4]oxazin]-2′-yl)pyrimidin-2-yl)propan-2-ol], the IC50 under setting [1] was in the range of 1000 to 10000 nM.
On to `CC(=O)Nc1ccc(-c2ccc3nc4n(c3c2)C(c2ccccc2)COC4)cn1` (stereo not shown) [T.6], for which the IC50 under setting [2] lay in the range of 10000 to 100000 nM.
For the compound `O=C(CO)N1CCN(c2ncc(-c3ccc4nc5n(c4n3)C3(CCc4ccccc43)COC5)cn2)CC1` (stereo not shown) [AV.6], the IC50 under setting [2] was less than 1000 nM.
Regarding `O=C1NCC2CN(c3ncc(-c4ccc5nc6n(c5c4)C(c4cccc(F)c4)COC6)cn3)CCN12` (stereo not shown) [V.1], the IC50 under setting [2] was less than 1000 nM.
As for `Cc1ccc(C)c(C2CCc3nc4ccc(-c5cnc(N6CCNC(=O)C6)nc5)nc4n32)c1` (stereo not shown) [N.2], the IC50 under setting [1] was less than 1000 nM.
Still for that read-out and setting: for `OC1CC2(CCN(c3ncc(-c4ccc5nc6n(c5c4)[C@@H](c4ccccc4)CC6)cn3)CC2)C1` [F.1] the value was less than 1000 nM.
Turning to `OC1(c2cc(F)cc(Cl)c2)CCCCc2nc3ccc(-c4cnc(N5CCOCC5)nc4)cn3c21` (stereo not shown) [J.5], under setting [1], the IC50 lay in the range of 1000 to 10000 nM.
With `CCN(C)C(=O)c1cccc(-c2ccc3nc4n(c3c2)C(c2ccccc2)CC4)c1` (stereo not shown) [A.44], the IC50 under setting [1] is 10000 to 100000 nM.
For `c1ccc([C@H]2COCc3nc4ccc(-c5cnc(N6CC(N7CCOCC7)C6)nc5)cc4n32)cc1` [G.17], under setting [1], the IC50 was in the range of 10000 to 100000 nM.
On to `CNCC(=O)N1CC=C(c2ccc3nc4n(c3n2)C2(COC4)COc3ccccc32)CC1` (stereo not shown) [BF.2], for which the IC50 under setting [2] was 1000 to 10000 nM.
Turning to `c1ccc([C@H]2CCc3nc4ccc(-c5cnc(N6CCOCC6)nc5)cc4n32)cc1` [D.3], under setting [1], the IC50 was less than 1000 nM.
Take `Cc1ccc(C)c([C@H]2CCc3nc4ccc(-c5cnc(C(C)(C)O)nc5)cc4n32)c1` [Y.8]: the IC50 under setting [2] was less than 1000 nM.
For the compound `c1ccc(C2CCc3nc4ccc(-c5cncnc5)cc4n32)cc1` (stereo not shown) [A.24], under setting [1], the IC50 was 1000 to 10000 nM.
As for `O=S(=O)(c1ccc(-c2ccc3nc4n(c3c2)C(c2ccccc2)CC4)cc1)N1CCOCC1` (stereo not shown) [A.3], under setting [1], the IC50 is less than 1000 nM.
As to `COc1cccc([C@H]2CCc3nc4ccc(-c5cnc(N6CCN7C(=O)NC[C@@H]7C6)nc5)nc4n32)c1` [AM.1], under setting [2], the IC50 is less than 1000 nM.
Regarding `c1ccc([C@H]2CCc3nc4ccc(-c5cnc(N6CCOCC6)nc5)nc4n32)cc1` [Y.10], under setting [2], the IC50 is less than 1000 nM.
As to `Cn1cc(-c2ccc3nc4n(c3c2)C(c2ccccc2)CC4)ccc1=O` (stereo not shown) [A.46], the IC50 under setting [1] is 10000 to 100000 nM.
`OC1CCCC(Oc2cc(-c3ccc4nc5n(c4n3)[C@@H](c3ccccc3)CC5)ccn2)C1` (stereo partly shown) [AQ.4]: the IC50 under setting [2] fell in the range of 1000 to 10000 nM.
`CS(=O)(=O)NC1CCN(c2ncc(-c3ccc4nc5n(c4c3)[C@@H](c3ccccc3)COC5)cn2)CC1` [G.19]: the IC50 under setting [1] lay within 1000 to 10000 nM.
On to `OCC1CCCN(c2ncc(-c3ccc4nc5n(c4c3)[C@@H](c3ccccc3)COC5)cn2)C1` (stereo partly shown) [G.4], for which, under setting [1], the IC50 was less than 1000 nM.
Consider `Cc1c(F)cccc1C1(O)CCCc2nc3ccc(-c4cnc(N5CCOCC5)nc4)cn3c21` (stereo not shown) [I.5], for which the IC50 under setting [1] lay in the range of 1000 to 10000 nM.
On to `c1ccc(C2CCCc3nc4ccc(-c5cnc(N6CCOCC6)nc5)nc4n32)cc1` (stereo not shown) [O.1], for which the IC50 under setting [1] was less than 1000 nM.

These data come from patent publication US20180179198A1, “TRICYCLIC MODULATORS OF TNF SIGNALING” (AbbVie Inc., priority 2015, published 2018).
